What was measured:
[1] = Selectivity index, ratio of CC50 for cytotoxicity against human THP-1 cells assessed as reduction in cell viability to IC50 for antileishmanial activity against […] stage of Leishmania braziliensis MHOM/BR/75/M2904 infected in human THP-1 cells assessed as parasite growth inhibition; assay type: toxicity, cell-based; conditions: read-out: Ratio CC50/IC50
[2] = Selectivity index, ratio of CC50 for cytotoxicity against human THP-1 cells assessed as reduction in cell viability to IC50 for antileishmanial activity against […] stage of Leishmania infantum MHOM/BR/1974/PP75 infected in human THP-1 cells assessed as parasite growth inhibition; assay type: toxicity, cell-based; conditions: read-out: Ratio CC50/IC50
Leishmania infantum = test: Antileishmanial activity against […] stage of Leishmania infantum MHOM/BR/1974/PP75 infected in human THP-1 cells assessed as parasite growth inhibition incubated for 72 hrs by microplate reader analysis; assay type: functional, organism-based; conditions: MHOM/BR/1974/PP75, THP-1, 72 h
Leishmania braziliensis = test: Antileishmanial activity against […] stage of Leishmania braziliensis MHOM/BR/75/M2904 infected in human THP-1 cells assessed as parasite growth inhibition incubated for 72 hrs by microplate reader analysis; assay type: functional, organism-based; conditions: MHOM/BR/75/M2904, THP-1, 72 h
[3] = Cytotoxicity against human THP-1 cells assessed as reduction in cell viability incubated for 72 hrs by alamarblue staining based analysis; assay type: toxicity
Trypanosoma cruzi = test: Antitrypanosomal activity against Trypanosoma cruzi Tulahuen infected in mouse L929 cells assessed as parasite growth inhibition incubated for 96 hrs; assay type: functional, organism-based; conditions: L929, 96 h
[4] = Cytotoxicity against human HepG2 cells assessed as reduction in cell viability incubated for 4 days by celltiter-glo assay; assay type: toxicity, cell-based; conditions: time 4 day
Leishmania donovani [5] = test: Antileishmanial activity against amastigote form of Leishmania donovani infected in HepG2 cells assessed as inhibition of parasite growth incubated for 72 hrs by Alamar blue staining based assay; assay type: functional, organism-based; conditions: HepG2, 72 h
Leishmania donovani [6] = test: Inhibition of Leishmania donovani at 10 uM GSK-3 by kinase glo assay relative to control

Compound O=C(c1ccc(OC(F)(F)F)cc1)N1CCN(c2cnccn2)CC1 has a selectivity ratio [1] of 49, a selectivity ratio [2] of 115 and an IC50 (Leishmania infantum) of 7.5 µM. For the same compound, the IC50 (Leishmania braziliensis) was 17.5 µM, the CC50 at 72 h [3] was 865 µM and the IC50 (Trypanosoma cruzi) was over 175 µM.

Compound O=C(c1ccc(C(F)(F)F)nc1)N1CCN(c2cnccn2)CC1 has a selectivity ratio [1] of 327, a selectivity ratio [2] of 298 and an IC50 (Leishmania infantum) of 35.2 µM. The IC50 (Leishmania braziliensis) was 32.1 µM, the CC50 at 72 h [3] was 10500 µM and the IC50 (Trypanosoma cruzi) was over 175 µM.

With COc1ccc(S(=O)(=O)N2CCN(c3cnccn3)CC2)cc1 the selectivity ratio [1] was over 32, the selectivity ratio [2] was over 24 and the IC50 (Leishmania infantum) was 122 µM. It also gave an IC50 (Leishmania braziliensis) of 94.1 µM and a CC50 at 72 h [3] of over 2990 µM.

With Nc1ccc(C(=O)N2CCN(c3cnccn3)CC2)cn1 the selectivity ratio [1] was 224, the selectivity ratio [2] was 524 and the IC50 (Leishmania infantum) was 5.1 µM. The IC50 (Leishmania braziliensis) was 11.9 µM and the CC50 at 72 h [3] was 2670 µM.

For O=C(c1ccc([N+](=O)[O-])cc1)N1CCN(c2cnccn2)CC1, the selectivity ratio [1] was 17, the selectivity ratio [2] was 13 and the IC50 (Leishmania infantum) was 221 µM. It also gave an IC50 (Leishmania braziliensis) of 161 µM, a CC50 at 72 h [3] of 2810 µM and an IC50 (Trypanosoma cruzi) of over 175 µM.

O=C(c1cccc(O)c1O)N1CCN(c2cnccn2)CC1 gave a selectivity ratio [1] of over 16600, a selectivity ratio [2] of over 1190 and an IC50 (Leishmania infantum) of 2.8 µM. For the same compound, the IC50 (Leishmania braziliensis) was 0.2 µM and the CC50 at 72 h [3] was over 3330 µM.

Work on O=C(c1cc(Cl)ccc1O)N1CCN(c2cnccn2)CC1 yielded a selectivity ratio [1] of 357, a selectivity ratio [2] of 149 and an IC50 (Leishmania infantum) of 10.8 µM. The IC50 (Leishmania braziliensis) was 4.5 µM and the CC50 at 72 h [3] was 1600 µM.

For O=C(c1ccc(O)cc1)N1CCN(c2cnccn2)CC1, the selectivity ratio [1] was 141, the selectivity ratio [2] was 346 and the IC50 (Leishmania infantum) was 3.1 µM. The IC50 (Leishmania braziliensis) was 7.6 µM, the CC50 at 72 h [3] was 1070 µM and the IC50 (Trypanosoma cruzi) was over 175 µM.

For O=C(c1cccnc1)N1CCN(c2cnccn2)CC1, the selectivity ratio [1] was over 28, the selectivity ratio [2] was over 26 and the IC50 (Leishmania infantum) was 142 µM. The IC50 (Leishmania braziliensis) was 132 µM and the CC50 at 72 h [3] was over 3710 µM.

With O=C(c1cccc(C(F)(F)F)n1)N1CCN(c2cnccn2)CC1 the selectivity ratio [1] was 0.5, the selectivity ratio [2] was 0.2 and the IC50 (Leishmania infantum) was 7430 µM. The IC50 (Leishmania braziliensis) was 3540 µM, the CC50 at 72 h [3] was 1700 µM and the IC50 (Trypanosoma cruzi) was over 175 µM.

In the case of CC(C)(C)OC(=O)N[C@@H](Cc1ccc(O)cc1)C(=O)N1CCN(c2cnccn2)CC1, the selectivity ratio [1] is reported as 108, the selectivity ratio [2] is reported as 349 and the IC50 (Leishmania infantum) is reported as 2.9 µM. For the same compound, the IC50 (Leishmania braziliensis) was 9.4 µM and the CC50 at 72 h [3] was 1010 µM.

COc1ccc(C(=O)N2CCN(c3cnccn3)CC2)c(OC)c1 gave a selectivity ratio [1] of 16, a selectivity ratio [2] of 18 and an IC50 (Leishmania infantum) of 26.4 µM. It also gave an IC50 (Leishmania braziliensis) of 30.6 µM and a CC50 at 72 h [3] of 482 µM.

With C[C@@H]1[C@H](O)[C@@H](C)/C=C/C=C/C=C/C=C/C=C/C=C/C=C/[C@H](O[C@@H]2O[C@H](C)[C@@H](O)[C@H](N)[C@@H]2O)C[C@@H]2O[C@](O)(C[C@@H](O)C[C@@H](O)[C@H](O)CC[C@@H](O)C[C@@H](O)CC(=O)O[C@H]1C)C[C@H](O)[C@H]2C(=O)O [AMPHOTERICIN B] the selectivity ratio [1] was 2800, the selectivity ratio [2] was 1460 and the IC50 (Leishmania infantum) was 0.25 µM. The IC50 (Leishmania braziliensis) was 0.13 µM and the CC50 at 72 h [3] was 364 µM.

O=C(N1CCN(c2cnccn2)CC1)n1ccnc1 showed a selectivity ratio [1] of 347, a selectivity ratio [2] of 438 and an IC50 (Leishmania infantum) of 7.3 µM. The IC50 (Leishmania braziliensis) was 9.2 µM and the CC50 at 72 h [3] was 3190 µM.

Work on COc1cc(F)ccc1C(=O)N1CCN(c2cnccn2)CC1 yielded a selectivity ratio [1] of 104, a selectivity ratio [2] of 40 and an IC50 (Leishmania infantum) of 34.3 µM. For the same compound, the IC50 (Leishmania braziliensis) was 13.1 µM, the CC50 at 72 h [3] was 1360 µM and the IC50 (Trypanosoma cruzi) was over 175 µM.

In the case of O=C(c1ccc(Cl)nc1)N1CCN(c2cnccn2)CC1, the selectivity ratio [1] is reported as 35, the selectivity ratio [2] is reported as 184 and the IC50 (Leishmania infantum) is reported as 1.9 µM. It also gave an IC50 (Leishmania braziliensis) of 10.1 µM and a CC50 at 72 h [3] of 349 µM.

For O=C(c1ccc(O)c(Cl)c1)N1CCN(c2cnccn2)CC1, the CC50 at 96 h [4] was over 100 µM, the IC50 (Leishmania donovani [5]) was 0.31 µM and the selectivity ratio [1] was 46. It also gave a selectivity ratio [2] of 46, an inhibition (Leishmania donovani [6]) of 1.65% and an IC50 (Leishmania infantum) of 11.9 µM. For the same compound, the IC50 (Leishmania braziliensis) was 11.7 µM, the CC50 at 72 h [3] was 542 µM and the IC50 (Trypanosoma cruzi) was over 175 µM.

In the case of O=C(c1ccccc1)N1CCN(c2cnccn2)CC1, the selectivity ratio [1] is reported as 29, the selectivity ratio [2] is reported as 11 and the IC50 (Leishmania infantum) is reported as 63.1 µM. The IC50 (Leishmania braziliensis) was 24.7 µM, the CC50 at 72 h [3] was 716 µM and the IC50 (Trypanosoma cruzi) was over 175 µM.

O=C(c1cccc(Cl)c1)N1CCN(c2cnccn2)CC1 showed a selectivity ratio [1] of 7, a selectivity ratio [2] of 6 and an IC50 (Leishmania infantum) of 113 µM. For the same compound, the IC50 (Leishmania braziliensis) was 93.4 µM, the CC50 at 72 h [3] was 662 µM and the IC50 (Trypanosoma cruzi) was over 175 µM.

Compound COc1ccc(C(=O)N2CCN(c3cnccn3)CC2)cc1OC has a selectivity ratio [1] of 21, a selectivity ratio [2] of 13 and an IC50 (Leishmania infantum) of 55.3 µM. The IC50 (Leishmania braziliensis) was 33.6 µM and the CC50 at 72 h [3] was 721 µM.

With COc1ccc(C(=O)N2CCN(c3cnccn3)CC2)cc1 the selectivity ratio [1] was 188, the selectivity ratio [2] was 422 and the IC50 (Leishmania infantum) was 4.5 µM. For the same compound, the IC50 (Leishmania braziliensis) was 10.1 µM, the CC50 at 72 h [3] was 1900 µM and the IC50 (Trypanosoma cruzi) was over 175 µM.

Reference: ChEMBL document CHEMBL5370527, “Hit-to-lead optimization of a pyrazinylpiperazine series against Leishmania infantum and Leishmania braziliensis” (Eur J Med Chem, 2023)
